Where two headings read alike, the source gives them in different places.
What was measured:
benzodiazepine receptor = assay: Inhibition of [3H]diazepam binding to benzodiazepine receptor (crude mitochondrial fraction of rat cerebral cortex); design: species or system male SD rats; conditions: in words
Method: The affinity of the compound of the present invention to a benzodiazepine receptor was investigated using radioactive [^3 H] diazepam.
Capability of specific binding to a benzodiazepin receptor was determined in accordance with the method described in the literature (Nature, 266, 732 (1977); European J. Pharmacol., 48, 263 (1978). Specifically, a crude mitochondrial fraction obtained from the cerebral cortex of male SD rats at 9 to 10 weeks of age was suspended in 50 mM Tris-HCL buffer (pH 7.4), and incubated, together with several concentrations of the subject drug and ^3 H-diazepam (final concentration 2 nM), at 4° C. for 20 minutes. This suspension was then filtered through a Whatman GF/B glass fiber filter, and the ^3 H-diazepam radioactivity on the filter was measured using a liquid scintillation counter. The concentration of the subject drug at which ^3 H-diazepam binding was inhibited by 50% was taken as the IC50 value.
Results from a typical compounds (VI) and (VIII) of the present invention and the corresponding racemic modifications thereof are shown in Table 1.

Male rats (SD/JCL) = assay: Antianxiety action (Vogel method, anticonflict water drinking test in rats); format: in vivo, rat (SD/JCL); conditions: for minimal effective dose: Rattus norvegicus, rats; for antianxiety action stronger than that of the corresponding racemic modification: from MED values of Table 2
[1] = po, 0.5 h, p.o., 30 minutes after dosing, water drinking frequency in 3 minutes, read-out: Minimum Effective Dose (MED), antianxiety action (Vogel method)
[2] = ip, 0.05 h, i.p., water drinking frequency in 3 minutes, read-out: Minimum Effective Dose (MED), antianxiety action (Vogel method)

O=C(CC1c2ccccc2C(=O)N1c1ccc2ccc(Cl)nc2n1)N1CCC2(CC1)OCCO2 (racemic) [Racemic modification of (VI), reference compound]
affinity to the benzodiazepin receptor versus racemic modification (benzodiazepine receptor): nearly fully potent action | minimal effective dose (Male rats (SD/JCL); [1]): 10 mg/kg

O=C(CC1c2ccccc2C(=O)N1c1ccc2ccc(Cl)nc2n1)N1CCC(O)CC1 (racemic) [Racemic modification of (VIII), reference compound]
minimal effective dose (Male rats (SD/JCL); [2]): 20 mg/kg

O=C(C[C@H]1c2ccccc2C(=O)N1c1ccc2ccc(Cl)nc2n1)N1CCC2(CC1)OCCO2 [(VI), (S)-(+)-2-(7-chloro-1,8-naphthylidin-2yl)-3-[(1,4-dioxa-8-azaspiro[4.5]dec-8-yl)carbonylmethyl]isoindolin-1-one]
affinity to the benzodiazepin receptor versus racemic modification (benzodiazepine receptor): no enhanced affinity | minimal effective dose (Male rats (SD/JCL); po, 0.5 h, P.O., read-out: MED for antianxiety action in rats): ≤ 1.25 mg/kg | minimal effective dose (Male rats (SD/JCL); [1]): 1.25 mg/kg | antianxiety action stronger than that of the corresponding racemic modification (Male rats (SD/JCL)): 8 times

O=C(C[C@H]1c2ccccc2C(=O)N1c1ccc2ccc(Cl)nc2n1)N1CCC(O)CC1 [(VIII), (S)-(+)-2-(7-chloro-1,8-naphthylidin-2-yl)-3-[(4-hydroxypiperidin-1-yl)carbonylmethyl]isoindolin-1-one]
minimal effective dose (Male rats (SD/JCL); [2]): 5 mg/kg | antianxiety action stronger than that of the corresponding racemic modification (Male rats (SD/JCL)): 4 times
